The test system of one assay is hESC-ventricular CMs. In words: Action potential recording (amphotericin-B-perforated patch-clamp) in hESC-ventricular CMs. Type of assay: cell-based, human. The settings on record: 1 Hz; for APAmax / APAplat / APD20 / dV/dtmax / APD50 / APD90: hESC-VM, n=5, mean±SEM. As to the method:
(§1) Spin EBs resulting from control and RA-treated differentiations were dissociated at day 17 to single cells using TrypLE™ Select (Life Technologies) and plated on gelatin-coated coverslips. Electrophysiological measurements were performed 10–14 days after dissociation from intrinsically quiescent single GFP^+ CMs that were able to contract upon field stimulation.
(§2) APs and membrane currents from hESC-CMs were recorded with the amphotericin-B-perforated patch-clamp technique at 36 ± 0.2°C using an Axopatch 200B amplifier (Molecular Devices, Sunnyvale, CA, USA). Cells were superfused with Tyrode's solution containing (in mmol/l) NaCl 140, KCl 5.4, CaCl2 1.8, MgCl2 1.0, glucose 5.5, and HEPES 5.0; pH was adjusted to 7.4 with NaOH. Pipettes (borosilicate glass; resistance 2–3 MΩ) were heat polished and filled with solution containing (in mmol/l) K-gluconate 125, KCl 20, NaCl 5, amphotericin-B 0.22 and HEPES 10; pH was adjusted to 7.2 with KOH. AP measurements were low-pass-filtered (cutoff frequency 10 kHz) and digitized at 40 kHz; membrane currents were measured at 1 and 4 kHz, respectively. Capacitance and series resistance were compensated by ≥ 80%, and APs were corrected for the calculated liquid junction potential (Barry & Lynch, [1991]). Voltage control, data acquisition and analysis were accomplished using custom software. Cell membrane capacitance (Cm) was estimated by dividing the time constant of the decay of the capacitive transient in response to 5 mV hyperpolarizing voltage clamp steps from −40 mV by the series resistance.
(§3) APs were elicited at 0.5 to 4 Hz by 3 ms, ∼1.2× threshold current pulses through the patch pipette. APs were characterized, as depicted in Fig2A, by resting membrane potential (RMP), maximum upstroke velocity (dV/dtmax), maximum AP amplitude (APAmax), AP plateau amplitude (APAplat, defined as the potential difference between RMP and potential at 20 ms after the upstroke), and the duration at 20, 50 and 90% repolarization (APD20, APD50, and APD90, respectively). Parameter values obtained from 10 consecutive APs were averaged. […]
(§4) (1:2000, Sigma) was performed in TBS-0.05% Tween 20 containing 2% nonfat milk for 1 hour at room temperature. The corresponding secondary antibody conjugated to horseradish peroxidase (HRP) (1:2000; anti-mouse-HRP (#7076), Cell Signaling) was incubated for 1 h at room temperature in 2% nonfat milk. Blots were developed on X-ray films by using a chemiluminescent detection system (ECL; GE Life Science, […]
(§5) The effects of drugs were tested in paired measurements 5 minutes after the onset of bath application. 4-AP was prepared as a 50 mmol/L stock solution in Tyrode’s solution, and pH adjusted to 7.4, with the addition of HCl. CCh, a muscarinic receptor agonist, was prepared as a 10 mmol/L stock solution in Tyrode’s solution. Nifedipine was prepared as a 10 mmol/L stock solution in DMSO and stored at 4 °C. Stock solutions for the other compounds were prepared in DMSO: Vernakalant (30 mmol/L), XEN- D0101 (3 mmol/L), XEN-R0703 (2 mmol/L) and […]. All stock solutions were diluted appropriately before use.
(§6) Recombinant ion channel pharmacology
(§7) Studies were conducted at room temperature using the whole-cell patch-clamp technique. HEK293 cells expressing Kir3.1/3.4, Kir2.1, and CHO cells expressing Nav1.2, Cav1.2 or hERG were used.
For orientation: In patch-clamp work, channel activity is measured electrically.

The subject of a further assay is hESC-atrial CMs. In words: Action potential recording (amphotericin-B-perforated patch-clamp) in hESC-atrial CMs. The following applies: for reversibility of AP changes: washout. Type of assay: cell-based, human. The method, then:
as §1, §2, §3, §4, §5, §6, §7

Where [1] appears, read: hESC-AM, 4-AP 50 μmol/l, 1 Hz, n=5, mean±SEM, Table S5.
The mark [2] stands for this setting: hESC-AM, CCh 10 μmol/l, 1 Hz, n=4, mean±SEM, Table S9.
[3] abbreviates: hESC-AM, CCh 10 μmol/l, 1 Hz, n=5, mean±SEM, Table S5.
[4] abbreviates: XEN-D0101 3 μmol/l, 1 Hz, vs pre-drug.
[5] abbreviates: hESC-AM, XEN-D0101 3 μmol/l, 1 Hz, n=5, mean±SEM, Table S7.
The mark [6] stands for this setting: vernakalant 30 μmol/l, Table S6.
Where [7] appears, read: hESC-AM, vernakalant 30 μmol/l, 1 Hz, n=5, mean±SEM, Table S6.
Setting [8] is: vernakalant 30 μmol/l, 1 Hz, vs pre-drug.

The structures appear in SMILES notation.

As for `Nc1ccncc1` [4-AP, 4-aminopyridine], in the assay on hESC-ventricular CMs (4-AP 50 μmol/l, Table S5), the APAmax was determined as 99.0±4.0 mV, the APAplat was determined as 99.8±5.8 mV, the APD20 was determined as 83.1 ± 15.1 ms and the dV/dtmax is reported as 49.9±11.1 V/s. Also, in the assay on hESC-atrial CMs (setting [1]), the APAmax is on record as 94.6±3.0 mV, the APAplat stood at 86.4±6.5 mV, the APD20 was found to be 41.6 ± 8.1 ms and the APD50 is 72 ± 13 ms.
In the assay with hESC-ventricular CMs (CCh 10 μmol/l), `C[N+](C)(C)CCOC(N)=O` [CCh, carbachol] yielded a dV/dtmax of 129.9±54 V/s. In the assay with hESC-ventricular CMs (CCh 10 μmol/l, Table S5), this molecule showed an APAmax of 104.4±9.1 mV and an APD20 of 112.9 ± 18.0 ms. Besides, in the assay with hESC-ventricular CMs (CCh 10 μmol/l, Table S9), the APAmax is reported as 110.5±7.8 mV, the APAplat was 109.6±7.5 mV, the APD20 was found to be 122.9 ± 17.5 ms and the APD50 was found to be 181.2 ± 27.6 ms. In the assay with hESC-ventricular CMs (CCh 10 μmol/l, Table S9), this molecule came in with an APD90 of 230.6 ± 25.7 ms and a dV/dtmax of 154.8±58.3 V/s. For the same molecule, in the assay on hESC-atrial CMs (setting [2]), the APAmax is given as 88.9±1.4 mV, the APAplat worked out at 72.4±3.1 mV, the APD20 amounted to 23.9 ± 4.6 ms and the APD50 is 68.1 ± 7.7 ms. In the assay on hESC-atrial CMs (setting [2]), this molecule returned an APD90 of 141.2 ± 12.4 ms and a dV/dtmax of 40.0±5.2 V/s. In the assay with hESC-atrial CMs (setting [3]), this molecule yielded an APAmax of 89.1±1.1 mV, an APAplat of 72.6±2.3 mV, an APD20 of 25.4 ± 3.8 ms and an APD50 of 67 ± 6 ms.
Take `O=C(NCCO)C1CCCN(c2nc(NCc3ccccn3)c3c(-c4ccccc4)csc3n2)C1` (stereo not shown) [XEN-D0101]: the “effect on AP parameters” value in the assay on hESC-ventricular CMs (XEN-D0101 3 μmol/l) is “did not s ignificantly alter any AP parameter”. In the assay on hESC-ventricular CMs (XEN-D0101 3 μmol/l, Table S7), the APAmax turned out to be 105.3±5.8 mV, the APAplat is reported as 103.7±6.5 mV, the APD20 was 101.3 ± 14.0 ms and the APD50 worked out at 158.4 ± 18.0 ms. The same molecule came in with an APD90 in the assay on hESC-ventricular CMs (XEN-D0101 3 μmol/l, Table S7) of 237.4 ± 21.9 ms. In addition, in the assay on hESC-atrial CMs (setting [4]), the “change of APA” value is recorded as > 10 mV, the “change of dV/dtmax” value is > 8 V/s, the “elevation of APAplat” value is > 26 mV and the “prolongation of APD20” value was > 30 ms. Further, in the assay on hESC-atrial CMs (setting [4]), the “prolongation of APD50” value was > 35 ms and the “prolongation of APD90” value was > 23 ms. The “reversibility of AP changes” value in the assay with hESC-atrial CMs (XEN-D0101 3 μmol/l) is “reversible upon washout”. Also, in the assay on hESC-atrial CMs (setting [5]), the APAmax was 98.9±5.8 mV, the APAplat came out at 86.8±7.4 mV, the APD20 amounted to 55.7 ± 16.2 ms and the APD50 was 91.3 ± 22.6 ms. Moreover, the APD90 with hESC-atrial CMs (setting [5]) turned out to be 156.2 ± 22.8 ms.
For the molecule `COc1ccc(CCO[C@@H]2CCCC[C@H]2N2CC[C@@H](O)C2)cc1OC` [vernakalant], in the assay on hESC-ventricular CMs (setting [6]), the APAmax is listed as 104±2.2 mV, the APAplat is reported as 101.3±2.8 mV, the APD20 was found to be 68.6 ± 06.8 ms and the APD90 stood at 180.0 ± 17.7 ms. Moreover, the dV/dtmax in the assay on hESC-ventricular CMs (setting [6]) turned out to be 58.3±6.1 V/s. Also, the “effect on AP parameters” value with hESC-ventricular CMs (vernakalant 30 μmol/l) was “reduced dV/dtmax but without affecting other AP parameters”. In the assay with hESC-atrial CMs (setting [7]), this molecule showed an APAmax of 80.3±2.2 mV, an APAplat of 73.6±4.9 mV, an APD20 of 29.7 ± 4.0 ms and an APD50 of 65.4 ± 7.7 ms. In addition, in the assay on hESC-atrial CMs (setting [7]), the APD90 was 177.2 ± 08.2 ms, the RMP is -74.2±2.5 mV and the dV/dtmax stood at 40.4±3.8 V/s. Besides, in the assay on hESC-atrial CMs (setting [8]), the “increase of APAmax” value was > 2.5 mV, the “increase of APAplat” value was > 20%, the “prolongation of APD20” value was > 7.5 ms and the “prolongation of APD50” value was > 15 ms. The “prolongation of APD90” value in the assay with hESC-atrial CMs (setting [8]) is reported as > 22 ms. Also, the “reversibility of AP changes” value in the assay with hESC-atrial CMs (vernakalant 30 μmol/l) is on record as “nearly reversible upon washout”.

The values above are taken from paper PMC4403042, “Atrial-like cardiomyocytes from human pluripotent stem cells are a robust preclinical model for assessing atrial-selective pharmacology” (EMBO Molecular Medicine, 2015).
